Laboratory results: US6284879A, “Transport associated protein splice variants” (The General Hospital Corporation, priority 1998, dated 2001)
“Also recorded” adds a separate entry of the source.

Legend:
[1] = system: TAP1/TAP2iso heterodimer (compared with TAP1/TAP2); assay: translocation of 125I-labeled peptides into the ER of permeabilized T2 transfectants; assay type: cell-based, human; conditions: 125I-labeled glycosylated peptide recovered from streptolysin O permeabilized T2 transfectants; comparison in words
Description: 10 mM stock solutions of peptides were prepared in dimethyl sulfoxide. Peptides (25 μg) were directly iodinated at unique tyrosine residues with the use of chloramine T (Sigma, St. Louis, Mo.), and free iodine was removed by gel filtration using Sephadex G 10 (Pharmacia) column chromatography.
(§1) Glycosylated ^125 I Peptide […] (SEQ ID NO: 6), Peptide […] (SEQ ID NO: 7), or Peptide […] (SEQ ID NO: 8) was recovered and measured. The peptide translocation assay was performed essentially as previously described (Neefjes et al., Science, 261:769 (1993); and Momburg et al., J. Exp. Med., 179:1613 (1994)). Briefly, 2.5-5.0×10^6 T2 cell (transfected or untransfected) were washed once with incubation buffer (130 mM KCl, 10 mM NaCl, 1 mM CaC2, 2 mM EDTA, 2 mM MgCl2, 5 mM Hepes, pH 7.3) and permeabilized for 10 minutes at 37° C. with streptolysin O (2 IU/ml) (Wellcome, Beckenham, UK) in 50 μl of incubation buffer. After further addition of 10 μl of 100 mM adenosine triphosphate, 10 μl of ^125 I-labeled peptide (~15 pM), and 30 μl of incubation buffer, cells were incubated for an additional 10 minutes at 37° C. Transport was terminated by the addition of 1 ml of 1% NP-40 detergent, after which nuclei were removed by centrifugation and glycosylated peptides were recovered using concanavalin A-Sepharose (Sigma, St. Louis, Mo.) and quantitated with a gamma counter (LKB-Wallac).

TAP1/TAP2 heterodimer = molecular target: T1, TAP1/TAP2 heterodimer (Homo sapiens, UniProt Q03518+Q03519); assay: competition with transport of 125I-Peptide RRYQNSTEL in TAP1/TAP2 transfectants; assay type: cell-based
T1 sequence (Q03518 1-748): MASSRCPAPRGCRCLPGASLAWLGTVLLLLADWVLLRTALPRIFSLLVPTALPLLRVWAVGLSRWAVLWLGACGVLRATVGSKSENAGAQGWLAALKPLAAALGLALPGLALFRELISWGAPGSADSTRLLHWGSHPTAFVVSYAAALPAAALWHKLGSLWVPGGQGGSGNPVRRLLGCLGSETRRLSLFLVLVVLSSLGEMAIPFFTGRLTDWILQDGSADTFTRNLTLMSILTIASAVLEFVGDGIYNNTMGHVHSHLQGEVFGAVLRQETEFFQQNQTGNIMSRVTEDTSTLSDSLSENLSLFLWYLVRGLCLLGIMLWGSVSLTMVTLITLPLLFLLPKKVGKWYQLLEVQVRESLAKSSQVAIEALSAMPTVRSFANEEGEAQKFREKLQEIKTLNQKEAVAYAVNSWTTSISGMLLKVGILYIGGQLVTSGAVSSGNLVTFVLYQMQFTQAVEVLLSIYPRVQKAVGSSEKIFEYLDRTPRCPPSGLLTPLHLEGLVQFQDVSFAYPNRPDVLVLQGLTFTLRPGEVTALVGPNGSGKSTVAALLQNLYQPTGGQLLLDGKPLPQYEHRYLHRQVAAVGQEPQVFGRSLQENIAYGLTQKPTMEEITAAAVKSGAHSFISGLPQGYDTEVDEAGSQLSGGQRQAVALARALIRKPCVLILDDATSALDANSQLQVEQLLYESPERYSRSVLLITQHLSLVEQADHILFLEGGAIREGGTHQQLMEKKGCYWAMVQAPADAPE
T1 sequence (Q03519 1-686 L359K/V379I): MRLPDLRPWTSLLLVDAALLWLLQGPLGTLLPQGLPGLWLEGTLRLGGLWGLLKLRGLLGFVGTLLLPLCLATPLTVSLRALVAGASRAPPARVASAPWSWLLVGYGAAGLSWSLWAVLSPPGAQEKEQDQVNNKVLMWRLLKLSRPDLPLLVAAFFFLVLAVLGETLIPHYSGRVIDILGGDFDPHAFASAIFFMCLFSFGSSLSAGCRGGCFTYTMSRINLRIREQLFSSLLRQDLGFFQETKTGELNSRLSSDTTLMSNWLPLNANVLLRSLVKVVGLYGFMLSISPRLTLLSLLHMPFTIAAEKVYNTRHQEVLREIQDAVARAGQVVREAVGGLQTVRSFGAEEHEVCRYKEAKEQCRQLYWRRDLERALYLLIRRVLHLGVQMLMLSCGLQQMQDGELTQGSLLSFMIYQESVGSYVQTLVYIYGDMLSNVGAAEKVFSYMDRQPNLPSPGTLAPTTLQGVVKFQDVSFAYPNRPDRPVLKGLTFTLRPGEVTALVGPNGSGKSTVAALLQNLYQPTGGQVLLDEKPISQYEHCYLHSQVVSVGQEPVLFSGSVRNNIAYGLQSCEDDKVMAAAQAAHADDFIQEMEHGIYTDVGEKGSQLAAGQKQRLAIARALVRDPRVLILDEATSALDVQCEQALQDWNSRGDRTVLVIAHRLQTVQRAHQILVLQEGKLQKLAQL
Description: as §1
Differential peptide selectivity of the TAP1/TAP2 and TAP1/TAP2iso heterodimers was further investigated by competition experiments with ^125 I-labeled Peptide […] (SEQ ID NO: 6) and various unlabeled peptides: Peptide […] […] The glycosylated peptides were recovered by Con A-Sepharose and quantitated. […]

TAP1/TAP2iso heterodimer = molecular target: T2, TAP1/TAP2iso heterodimer (Homo sapiens, UniProt Q03518+Q03519); assay: competition with transport of 125I-Peptide RRYQNSTEL in TAP1/TAP2iso transfectants; assay type: cell-based; conditions: TAP1/TAP2iso transfectants
T2 construct: expressed in transfected cells
T2 sequence (Q03519 1-653 isoform Q03519-2 L359K/V379I): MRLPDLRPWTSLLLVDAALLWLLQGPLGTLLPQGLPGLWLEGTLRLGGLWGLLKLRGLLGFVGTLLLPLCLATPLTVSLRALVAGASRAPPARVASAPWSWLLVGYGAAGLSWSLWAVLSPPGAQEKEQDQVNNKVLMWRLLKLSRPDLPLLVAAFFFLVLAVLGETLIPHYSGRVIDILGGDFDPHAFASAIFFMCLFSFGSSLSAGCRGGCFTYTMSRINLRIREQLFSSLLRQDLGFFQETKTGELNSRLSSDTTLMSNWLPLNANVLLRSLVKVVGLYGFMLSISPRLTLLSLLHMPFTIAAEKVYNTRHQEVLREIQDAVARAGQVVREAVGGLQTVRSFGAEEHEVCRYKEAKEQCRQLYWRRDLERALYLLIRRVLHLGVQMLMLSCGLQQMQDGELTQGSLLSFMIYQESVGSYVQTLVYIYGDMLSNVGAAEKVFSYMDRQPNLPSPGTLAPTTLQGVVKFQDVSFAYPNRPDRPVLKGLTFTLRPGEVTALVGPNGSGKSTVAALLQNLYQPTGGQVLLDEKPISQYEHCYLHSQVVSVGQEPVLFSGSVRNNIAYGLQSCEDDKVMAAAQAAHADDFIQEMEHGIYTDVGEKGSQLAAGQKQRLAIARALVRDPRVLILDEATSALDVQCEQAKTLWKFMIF
T2 sequence (Q03518 1-748): T1 sequence (Q03518 1-748)
Description: as §1
Differential peptide selectivity of the TAP1/TAP2 and TAP1/TAP2iso heterodimers was further investigated by competition experiments with ^125 I-labeled Peptide […] (SEQ ID NO: 6) and various unlabeled peptides: Peptide […] (SEQ ID NO: 6); Peptide […] (SEQ ID NO: 7); Peptide […] (SEQ ID NO: 8); Peptide […] (SEQ ID NO: 9), the S1-24 fragment of human adrenocorticotropic hormone); and Peptide […] (SEQ ID NO: 10), residues 22 to 30 (human insulin B chain). The iodinated 9-mer Peptide […] was translocated in the presence of different concentrations of unlabeled competition peptides. The glycosylated peptides were recovered by Con A-Sepharose and quantitated. […] (self); (6B) competition of ^125 I-Peptide […] with Peptide […]; (6C) competition of ^125 I-Peptide […] with Peptide […]; and (6D) competition of ^125 I-Peptide […] with Peptide […]; and (6E) competition of ^125 I-Peptide […] with Peptide […].

[2] = system: T1 cells (naturally co-express both TAP2 and TAP2iso); conditions: in words
[3] = unlabeled peptide against transport of 125I-Peptide RRYQNSTEL, read-out: median inhibitory concentration (IC50)

| Sequence | amount of translocated peptide, TAP1/TAP2iso compared with TAP1/TAP2 [1] | IC50 (TAP1/TAP2 heterodimer; [3]) [nM] | IC50 (TAP1/TAP2iso heterodimer; [3]) [nM] | transportation of test peptides (relative IC50) [2] | inhibition of transport of Peptide RRYQNSTEL (TAP1/TAP2 heterodimer; in words) | inhibition of transport of Peptide RRYQNSTEL (TAP1/TAP2iso heterodimer; in words) |
| --- | --- | --- | --- | --- | --- | --- |
| RRYQNSTEL [Peptide RRYQNSTEL] | transported to similar extents; also recorded: translocated with equal efficiency | ~150 | ~150 | equal efficiency |  |  |
| SYSMEHGRWGKPVGKKRRPVKVYP |  |  |  |  | did not inhibit | did not inhibit |
